The values below come from patent US20260265238A1, “COMPOUNDS AND PHARMACEUTICAL COMPOSITIONS THAT DEGRADE SWI/SNF-RELATED MATRIX-ASSOCIATED ACTIN-DEPENDENT REGULATOR OF CHROMATIN SUBFAMILY A” (Plexium, Inc., priority 2023, published 2026).

Assay [1] addresses T1, SMARCA2-HiBiT HeLa cells (protein which is expressed from the SMARCA2 gene) (Homo sapiens, UniProt P51531).
T1 construct: protein which is expressed from the SMARCA2 and SMARCA4 genes; host or cells: HeLa (SMARCA2-HiBiT engineered line)
Briefly: SMARCA2 degradation assay (HiBiT-fusion HeLa cell line, 24 h, luminescence). In kind it is cell-based. Here is the method:
(§1) SMARCA2 and SMARCA4 Degradation Assay
(§2) Degradation of protein which is expressed from the SMARCA2 and SMARCA4 genes was monitored using engineered HiBiT-fusion HeLa cell lines from Promega. In brief, 384-well white opaque plates (Greiner) were seeded with SMARCA2-HiBiT or SMARCA4-HiBiT HeLa cells at 8,000 cells/well and incubated overnight at 37° C. to allow cell attachment. After overnight incubation, test compounds were added in a 10-point dilution series (typically 10 μM to 300 pM) using a TECAN D300e Digital Dispenser, and plates were subsequently incubated for 24 hours at 37° C. 24-hours post-treatment, protein levels were quantified with the addition of HiBiT lytic buffer, LgBiT protein, and HiBiT substrate, according to manufacturer's specifications. Plates were incubated on an orbital plate shaker for 10 minutes at room temperature. Resulting luminescent values were read out using a ClarioStar plate reader and used to construct dose-response curves and calculation of degradation DC50s (GraphPad Prism).
(§3) Activity of the tested compounds is provided in Table 4 below as follows: A=DC50<0.050 μM; B=0.05 μM<DC50<0.50 μM; C=<0.5 μM<DC50<5.0 μM; D=DC50>5.0 μM. For SMARCA2 and SMARCA4 degradation activity @1 μM, +++=>70%; ++=30-70%; +=<30%.
(HiBiT is a short tag that completes a luciferase, so light tracks the accessible tagged protein.)

In assay [2] the target is T2, SMARCA4-HiBiT HeLa cells (protein which is expressed from the SMARCA4 gene) (Homo sapiens, UniProt P51532).
T2 construct: protein which is expressed from the SMARCA2 and SMARCA4 genes; host or cells: HeLa (SMARCA4-HiBiT engineered line)
T2 sequence (P51532 whole entry): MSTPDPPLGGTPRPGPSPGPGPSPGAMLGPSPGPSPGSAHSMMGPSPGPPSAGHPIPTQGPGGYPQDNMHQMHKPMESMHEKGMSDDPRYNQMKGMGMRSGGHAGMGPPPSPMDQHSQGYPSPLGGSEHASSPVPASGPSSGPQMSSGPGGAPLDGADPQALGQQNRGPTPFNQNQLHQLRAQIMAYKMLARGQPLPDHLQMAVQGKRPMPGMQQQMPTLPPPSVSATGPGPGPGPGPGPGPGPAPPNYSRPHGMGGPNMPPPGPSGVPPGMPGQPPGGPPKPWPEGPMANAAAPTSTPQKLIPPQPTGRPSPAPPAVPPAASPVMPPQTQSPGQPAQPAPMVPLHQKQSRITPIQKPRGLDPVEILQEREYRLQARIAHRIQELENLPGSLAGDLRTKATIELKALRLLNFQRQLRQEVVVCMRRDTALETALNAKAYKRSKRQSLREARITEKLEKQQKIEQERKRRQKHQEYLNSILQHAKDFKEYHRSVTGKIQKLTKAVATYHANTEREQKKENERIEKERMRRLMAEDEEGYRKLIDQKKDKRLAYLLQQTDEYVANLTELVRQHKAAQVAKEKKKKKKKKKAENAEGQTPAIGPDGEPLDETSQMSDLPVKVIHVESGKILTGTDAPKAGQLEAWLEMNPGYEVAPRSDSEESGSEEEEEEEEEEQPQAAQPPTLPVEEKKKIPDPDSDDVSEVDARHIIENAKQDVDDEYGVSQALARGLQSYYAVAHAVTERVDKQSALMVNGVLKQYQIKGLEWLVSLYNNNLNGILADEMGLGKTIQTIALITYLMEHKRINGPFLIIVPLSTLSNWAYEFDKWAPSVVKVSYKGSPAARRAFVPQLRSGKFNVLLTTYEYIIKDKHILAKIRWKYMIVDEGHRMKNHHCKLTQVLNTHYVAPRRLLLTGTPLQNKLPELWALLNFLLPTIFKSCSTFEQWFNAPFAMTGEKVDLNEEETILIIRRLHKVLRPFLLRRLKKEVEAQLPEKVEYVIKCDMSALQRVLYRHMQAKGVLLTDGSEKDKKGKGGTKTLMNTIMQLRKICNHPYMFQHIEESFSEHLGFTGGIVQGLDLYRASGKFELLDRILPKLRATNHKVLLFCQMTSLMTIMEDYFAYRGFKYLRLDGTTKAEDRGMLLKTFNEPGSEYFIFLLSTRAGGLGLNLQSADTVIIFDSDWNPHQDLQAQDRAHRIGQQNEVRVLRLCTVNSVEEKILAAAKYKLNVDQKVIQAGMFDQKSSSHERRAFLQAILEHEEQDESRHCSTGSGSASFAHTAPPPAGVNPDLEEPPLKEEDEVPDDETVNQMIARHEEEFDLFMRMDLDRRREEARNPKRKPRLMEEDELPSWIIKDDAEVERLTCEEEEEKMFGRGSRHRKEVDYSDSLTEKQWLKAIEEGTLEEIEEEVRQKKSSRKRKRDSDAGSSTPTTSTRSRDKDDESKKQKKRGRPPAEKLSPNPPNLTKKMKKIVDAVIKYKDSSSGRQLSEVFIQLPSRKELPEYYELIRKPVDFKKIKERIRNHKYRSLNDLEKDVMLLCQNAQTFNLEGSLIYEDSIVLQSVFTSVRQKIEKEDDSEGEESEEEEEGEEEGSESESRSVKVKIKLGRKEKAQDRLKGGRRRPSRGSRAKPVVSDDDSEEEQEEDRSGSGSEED
Briefly: SMARCA4 degradation assay (HiBiT-fusion HeLa cell line, 24 h, luminescence). In kind it is cell-based. Here is the method:
as §1, §2, §3

T1 sequence (P51531 whole entry): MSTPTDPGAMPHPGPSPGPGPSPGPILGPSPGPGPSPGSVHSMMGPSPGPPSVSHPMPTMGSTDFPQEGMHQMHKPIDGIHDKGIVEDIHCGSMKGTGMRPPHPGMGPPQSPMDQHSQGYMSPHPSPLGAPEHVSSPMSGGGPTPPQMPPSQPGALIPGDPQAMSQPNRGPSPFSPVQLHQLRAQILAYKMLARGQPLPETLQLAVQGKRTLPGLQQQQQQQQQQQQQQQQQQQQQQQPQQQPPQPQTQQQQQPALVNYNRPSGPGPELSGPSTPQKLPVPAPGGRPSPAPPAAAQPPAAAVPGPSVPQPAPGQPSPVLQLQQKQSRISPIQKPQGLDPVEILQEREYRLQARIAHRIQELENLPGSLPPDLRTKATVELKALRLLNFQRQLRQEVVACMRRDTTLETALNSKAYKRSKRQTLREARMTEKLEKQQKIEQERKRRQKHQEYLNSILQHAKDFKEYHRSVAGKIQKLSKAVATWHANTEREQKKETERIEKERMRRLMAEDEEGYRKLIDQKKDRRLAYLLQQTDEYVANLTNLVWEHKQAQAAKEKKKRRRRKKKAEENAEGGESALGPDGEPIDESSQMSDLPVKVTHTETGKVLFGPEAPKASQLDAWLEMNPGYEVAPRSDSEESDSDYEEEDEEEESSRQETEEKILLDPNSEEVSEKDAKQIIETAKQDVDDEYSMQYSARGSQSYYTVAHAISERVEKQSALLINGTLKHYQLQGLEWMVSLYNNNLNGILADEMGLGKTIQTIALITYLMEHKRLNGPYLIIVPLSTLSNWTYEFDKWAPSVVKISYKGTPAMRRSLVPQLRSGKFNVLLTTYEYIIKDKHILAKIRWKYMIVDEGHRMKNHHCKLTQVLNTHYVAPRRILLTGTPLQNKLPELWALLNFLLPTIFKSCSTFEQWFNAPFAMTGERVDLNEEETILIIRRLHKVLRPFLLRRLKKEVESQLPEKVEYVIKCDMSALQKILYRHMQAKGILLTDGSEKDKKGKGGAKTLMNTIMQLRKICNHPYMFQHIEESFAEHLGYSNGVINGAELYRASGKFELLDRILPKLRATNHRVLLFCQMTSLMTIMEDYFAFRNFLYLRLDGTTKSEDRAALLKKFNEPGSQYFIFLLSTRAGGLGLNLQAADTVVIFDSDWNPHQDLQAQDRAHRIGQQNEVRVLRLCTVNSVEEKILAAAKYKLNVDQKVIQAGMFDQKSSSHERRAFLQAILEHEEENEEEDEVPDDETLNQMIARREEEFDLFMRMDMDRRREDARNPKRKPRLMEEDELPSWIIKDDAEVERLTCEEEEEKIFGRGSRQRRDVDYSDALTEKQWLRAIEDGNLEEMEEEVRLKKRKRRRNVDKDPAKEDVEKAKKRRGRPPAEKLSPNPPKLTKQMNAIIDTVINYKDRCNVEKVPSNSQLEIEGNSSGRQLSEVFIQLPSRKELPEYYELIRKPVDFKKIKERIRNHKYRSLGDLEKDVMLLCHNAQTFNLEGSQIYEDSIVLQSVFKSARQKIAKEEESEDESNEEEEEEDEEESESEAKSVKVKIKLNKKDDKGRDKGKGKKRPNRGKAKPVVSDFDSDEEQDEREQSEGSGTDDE

By DC50 is commonly meant the midpoint of the concentration-degradation curve. Higher therefore signals a less potent degrader. Usually inhibition stands for the percentage by which the read-out fell short of the control. A low value points to a weak effect. Take `CCC1CN(c2ccnc(C#CCNC(=O)c3cc4ncccn4n3)n2)CCN1c1cc(-c2ccccc2O)nnc1N` (centres unmarked) [Compound P-51, N-(3-(4-(4-(3-amino-6-(2-hydroxyphenyl)pyridazin-4-yl)-3-ethylpiperazin-1-yl)pyrimidin-2-yl)prop-2-yn-1-yl)pyrazolo[1,5-a]pyrimidine-2-carboxamide]: the DC50 in assay [1] and in assay [2] was 0.05 to 0.5 µM throughout. Also, the “SMARCA2 % Degradation @ 1 μM” value in assay [1] (@ 1 μM) was “++ (++=30-70%)”. The inhibition at 1 µM in assay [2] (@ 1 μM) fell in the range of 30 to 70%.

Take `CCC1CN(CC#Cc2nccc(N3CCCN(c4cc(-c5ccccc5O)nnc4N)CC3)n2)c2ccccc2O1` (centres unmarked) [Compound P-360, 0-[6-amino-5-(4-{2-[3-(2-ethyl-3,4-dihydro-2H-1,4-benzoxazin-4-yl)-1-propynyl]-4-pyrimidinyl}-1,4-diazepan-1-yl)-3-pyridazinyl]phenol]: the DC50 in assay [1] and in assay [2] was 0.05 to 0.5 µM throughout. Besides, the “SMARCA2 % Degradation @ 1 μM” value in assay [1] (@ 1 μM) was “++ (++=30-70%)”. In assay [2] (@ 1 μM), the inhibition at 1 µM lay in the range of 30 to 70%.

Regarding `Nc1nnc(-c2ccccc2O)cc1N1CC2CCC(C1)N2c1ccnc(C#CCNc2ncco2)n1` [Compound P-106, 2-(6-amino-5-(8-(2-(3-(oxazol-2-ylamino)prop-1-yn-1-yl)pyrimidin-4-yl)-3,8-diazabicyclo[3.2.1]octan-3-yl)pyridazin-3-yl)phenol], the DC50 in assay [1] and in assay [2] was 0.5 to 5 µM in each case. Also, in assay [1] (@ 1 μM), the “SMARCA2 % Degradation @ 1 μM” value is reported as “++ (++=30-70%)”. The inhibition at 1 µM in assay [2] (@ 1 μM) lay in the range of 30 to 70%.

Turning to `Nc1nnc(-c2ccccc2O)cc1N1CCCN(c2ccnc(C#CCN3CCOC4(CCCC4)C3)n2)CC1` [Compound P-370, 0-{6-amino-5-[4-(2-{3-(6-oxa-9-aza-9-spiro[4.5]decyl)-1-propynyl}-4-pyrimidinyl)-1,4-diazepan-1-yl]-3-pyridazinyl}phenol], the DC50 in assay [1] and in assay [2] was 0.05 to 0.5 µM in each case. Moreover, in assay [1] (@ 1 μM), the “SMARCA2 % Degradation @ 1 μM” value is listed as “+++ (+++=>70%)”. In assay [2] (@ 1 μM), this molecule showed an inhibition at 1 µM of 30 to 70%.

For the molecule `Nc1nnc(-c2ccccc2O)cc1N1C2CCC1CN(c1ccnc(C#CCNC(=O)c3cc4ncccn4n3)n1)C2` [Compound P-78, N-(3-(4-(8-(3-amino-6-(2-hydroxyphenyl)pyridazin-4-yl)-3,8-diazabicyclo[3.2.1]octan-3-yl)pyrimidin-2-yl)prop-y2-yn-1-l)pyrazolo[1,5-a]pyrimidine-2-carboxamide], the DC50 in assay [1] and in assay [2] was 0.05 to 0.5 µM each time. Also, the “SMARCA2 % Degradation @ 1 μM” value in assay [1] (@ 1 μM) is recorded as “+++ (+++=>70%)”. Moreover, in assay [2] (@ 1 μM), the inhibition at 1 µM was in the range of 30 to 70%.

On to `CNCC#Cc1nccc(N2CCN(c3cc(-c4ccccc4O)nnc3N)[C@@H](C)C2)n1` [Compound P-292, 0-{5-[(S)-2-methyl-4-{2-[3-(methylamino)-1-propynyl]-4-pyrimidinyl}-1-pipcrazinyl]-6-amino-3-pyridaziny1} phenol], for which the 50% degradation concentration (DC50) in assay [1] was 0.05 to 0.5 µM; in assay [2] it was below 0.05 µM. The “SMARCA2 % Degradation @ 1 μM” value in assay [1] (@ 1 μM) is “++ (++=30-70%)”. The molecule also registered an inhibition at 1 µM in assay [2] (@ 1 μM) below 30%.

Turning to `Nc1nnc(-c2ccccc2O)cc1N1CCC2(CCN(c3ccnc(C#CCNC(=O)c4cc5ncccn5n4)n3)CC2)CC1` [Compound P-42, N-(3-(4-(9-(3-amino-6-(2-hydroxyphenyl)pyridazin-4-yl)-3,9-diazaspiro[5.5]undecan-3-yl)pyrimidin-2-yl)prop-2-yn-1-yl)pyrazolo[1,5-a]pyrimidine-2-carboxamide], the DC50 in assay [1] and in assay [2] was 0.05 to 0.5 µM in each case. Also, in assay [1] (@ 1 μM), the “SMARCA2 % Degradation @ 1 μM” value was “++ (++=30-70%)”. The same molecule registered an inhibition at 1 µM in assay [2] (@ 1 μM) of 30 to 70%.

`CNC/C=C/c1nccc(N2CCN(c3cc(-c4ccccc4O)nnc3N)CC[C@H]2C)n1` [Compound P-165, o-{5-[(R)-5-methyl-4-{2-[3-(methylamino)-1-propenyl]-4-pyrimidinyl}-1,4-diazepan-1-y1]-6-amino-3-pyridaziny1}phenol]: the DC50 in assay [1] and in assay [2] was 0.05 to 0.5 µM in each case. Moreover, in assay [1] (@ 1 μM), the “SMARCA2 % Degradation @ 1 μM” value is recorded as “+++ (+++=>70%)”. The inhibition at 1 µM in assay [2] (@ 1 μM) was in the range of 30 to 70%.

Take `C[C@@H]1CCN(c2cc(-c3ccccc3O)nnc2N)CCN1c1ccnc(C#CCN2CC[C@H]2CF)n1` [Compound P-263, o-{5-[(R)-4-(2-{3-[(S)-2-(fluoromethyl)-1-azetidinyl]-1-propynyl}-4-pyrimidinyl)-5-methyl-1,4-diazepan-1-yl]-6-amino-3-pyridazinyl}phenol]: the DC50 in assay [1] was 0.05 to 0.5 µM; in assay [2], below 0.05 µM. For the same molecule, the “SMARCA2 % Degradation @ 1 μM” value in assay [1] (@ 1 μM) is listed as “++ (++=30-70%)”. This molecule returned an inhibition at 1 µM in assay [2] (@ 1 μM) below 30%.

For `C[C@@H]1CCN(c2cc(-c3ccccc3O)nnc2N)CCN1c1ccnc(C#CCN2CC3CC2(C)C3)n1` [Compound P-190, o-{5-[(R)-5-methyl-4-(2-{3-(1-methyl-2-azabicyclo[2.1.1]hex-2-yl)-1-propynyl}-4-pyrimidinyl)-1,4-diazepan-1-yl]-6-amino-3-pyridazinyl}phenol], the DC50 in assay [1] and in assay [2] was 0.05 to 0.5 µM throughout. In assay [1] (@ 1 μM), the “SMARCA2 % Degradation @ 1 μM” value is on record as “+++ (+++=>70%)”. The inhibition at 1 µM in assay [2] (@ 1 μM) lay within 30 to 70%.

In the case of `CC1CCN(c2cc(-c3ccccc3O)nnc2N)CCN1c1ccnc(C#CCNC(=O)c2cc3ncccn3n2)n1` (centres unmarked) [Compound P-46, N-(3-(4-(4-(3-amino-6-(2-hydroxyphenyl)pyridazin-4-yl)-7-methyl-1,4-diazepan-1-yl)pyrimidin-2-yl)prop-2-yn-1-yl)pyrazolo[1,5-a]pyrimidine-2-carboxamide], the DC50 in assay [1] and in assay [2] was 0.05 to 0.5 µM throughout. For the same molecule, the “SMARCA2 % Degradation @ 1 μM” value in assay [1] (@ 1 μM) is reported as “+++ (+++=>70%)”. This molecule displayed an inhibition at 1 µM in assay [2] (@ 1 μM) above 70%.

Turning to `C[C@@H]1CCN(c2cc(-c3ccccc3O)nnc2N)CCN1c1ccnc(C#CCN2CCC(F)(F)C2)n1` [Compound P-243, o-{5-[(R)-4-{2-[3-(3,3-difluoro-1-pyrrolidinyl)-1-propynyl]-4-pyrimidinyl}-5-methyl-1,4-diazepan-1-yl]-6-amino-3-pyridazinyl} phenol], the DC50 in assay [1] and in assay [2] was 0.05 to 0.5 µM in each case. Besides, the “SMARCA2 % Degradation @ 1 μM” value in assay [1] (@ 1 μM) is listed as “++ (++=30-70%)”. The same molecule yielded an inhibition at 1 µM in assay [2] (@ 1 μM) of 30 to 70%.

As for `Nc1nnc(-c2ccccc2O)cc1N1CCN(c2ccnc(C#CCNC(=O)c3cc4ncccn4n3)n2)C2CC21` (centres unmarked) [Compound P-28, N-(3-(4-(5-(3-amino-6-(2-hydroxyphenyl)pyridazin-4-yl)-2,5-diazabicyclo[4.1.0]heptan-2-yl)pyrimidin-2-yl)prop-2-yn-1-yl)pyrazolo[1,5-a]pyrimidine-2-carboxamide], the DC50 in assay [1] was 0.05 to 0.5 µM; in assay [2], below 0.05 µM. Also, the “SMARCA2 % Degradation @ 1 μM” value in assay [1] (@ 1 μM) is “++ (++=30-70%)”. In assay [2] (@ 1 μM), the inhibition at 1 µM was 30 to 70%.

As to `Nc1nnc(-c2ccccc2O)cc1N1CCCN(c2ccnc(C#CCOc3ncco3)n2)CC1` [Compound P-128, 2-(6-amino-5-(4-(2-(3-(oxazol-2-yloxy)prop-1-yn-1-yl)pyrimidin-4-yl)-1,4-diazepan-1-yl)pyridazin-3-yl)phenol], the figures for the DC50 in assay [1] and in assay [2] were below 0.05 µM and 0.05 to 0.5 µM, respectively. Moreover, in assay [1] (@ 1 μM), the “SMARCA2 % Degradation @ 1 μM” value is recorded as “+++ (+++=>70%)”. The inhibition at 1 µM in assay [2] (@ 1 μM) was in the range of 30 to 70%.

Turning to `C[C@@H]1CCN(c2cc(-c3ccccc3O)nnc2N)CCN1c1ccc(C#N)c(C#CCN2CCC(F)(F)CC2)n1` [Compound P-416, 6-{(R)-4-[3-amino-6-(o-hydroxyphenyl)-4-pyridazinyl]-7-methyl-1,4-diazepan-1-yl}-2-[3-(4,4-difluoro-1-piperidyl)-1-propynyl]nicotinonitrile], the DC50 in assay [1] and in assay [2] was 0.05 to 0.5 µM in each case. Besides, the “SMARCA2 % Degradation @ 1 μM” value in assay [1] (1 μM) is on record as “+++ (+++=>70%)”. This molecule showed an inhibition at 1 µM in assay [2] (1 μM) above 70%.

Take `CCOc1cc(N2CCCN(c3cc(-c4ccccc4O)nnc3N)CC2)nc(C#CCNC(=O)c2cc3ncccn3n2)n1` [Compound P-124, N-(3-(4-(4-(3-amino-6-(2-hydroxyphenyl)pyridazin-4-yl)-1,4-diazepan-1-yl)-6-ethoxypyrimidin-2-yl)prop-2-yn-1-yl)pyrazolo[1,5-a]pyrimidine-2-carboxamide]: the DC50 in assay [1] and in assay [2] was 0.05 to 0.5 µM in each case. In addition, the “SMARCA2 % Degradation @ 1 μM” value in assay [1] (@ 1 μM) is “++ (++=30-70%)”. The molecule further yielded an inhibition at 1 µM in assay [2] (@ 1 μM) above 70%.

`NCC#Cc1nccc(N2CCCC3(CCN(c4cc(-c5ccccc5O)nnc4N)CC3)C2)n1` [Compound P-87, 2-(6-amino-5-(2-(2-(3-aminoprop-1-yn-1-yl)pyrimidin-4-yl)-2,9-diazaspiro[5.5]undecan-9-yl)pyridazin-3-yl)phenol] had a DC50 in assay [1] of 0.5 to 5 µM. In assay [1] (@ 1 μM), the “SMARCA2 % Degradation @ 1 μM” value is on record as “+ (+=<30%)”.

Molecule `NCC#Cc1nccc(N2CCC3C2CCCN3c2cc(-c3ccccc3O)nnc2N)n1` (centres unmarked) [Compound P-88, 2-(6-amino-5-(1-(2-(3-aminoprop-1-yn-1-yl)pyrimidin-4-yl)octahydro-4H-pyrrolo[3,2-b]pyridin-4-yl)pyridazin-3-yl)phenol] registered a DC50 in assay [1] above 5 µM. The “SMARCA2 % Degradation @ 1 μM” value in assay [1] (@ 1 μM) was “+ (+=<30%)”.
